Measured values from patent publication US20050197372A1 (priority 2002, published 2005).

Columns and labels:
Format in all cases: cell-based, human
[1] = tested on: platelet-leukocyte microparticles (CD151 + CD14); test: Whole blood flow cytometry, platelet-leukocyte microparticles; details: for Formation of platelet-leukocyte microparticles (CD151 + CD14): baseline 92.2 ± 19.3
Method: (§1) None of them received aspirin or any other anti-platelet agents. All subjects underwent blood sampling after at least 30 minutes of rest and 2 or more hours of fasting. Blood was drawn between 8 and 10 a.m. in order to avoid any diurnal influence and sampled from an antecubital vein using a 21-gauge butterfly needle containing 3.8% sodium citrate (1:9 volume) after having discarded the first 1.5 ml of free running blood. Eleven Vacutainer tubes (4.5 ml) were collected for a total of 49 ml of whole blood-citrate mixture from each study participant. One tube was kept as an internal control and was incubated with buffer solution. […] To avoid possible observer bias, blood samples were coded and blinded. Sampling procedures, and platelet studies were performed by individuals unaware of the protocol.
(§2) The expression of platelet receptors was determined by using the following monoclonal antibodies: CD31 (platelet endothelial cell adhesion molecule (PECAM-1), CD41 (glycoprotein [GP] IIb/IIIa, (IIb (3), CD42b (GP Ib), CD 51/CD61 ((v (3, or vitronectin receptor), CD62p (P-selectin), CD107a (lysosome associated membrane protein-1; LAMP-1), CD 107b (LAMP-2), CD151 (platelet/endothelial tetraspan antigen-3; PETA-3), and PAC-1 for fibrinogen-platelet (PharMingen, San Diego, Calif.). Platelet-leukocyte interactions were assessed by using dual antibodies for a pan-platelet marker (CD 151), together with CD14, a monocyte/macrophage marker. The blood-citrate mixture (50 μl) was diluted with 450 μl Tris buffered saline (TBS) (10 mmol/L Tris, 0.15 mol/L sodium chloride) and mixed by gently inverting an Eppendorf tube 2 times. Five μl of the corresponding antibodies were then added to each solution and the samples were incubated for 30 minutes. After incubation, 400 μl of 2% buffered paraformaldehyde was added for fixation. The samples were analyzed by a Becton Dickinson FACScan flow cytometer set up to measure fluorescent light scatter, as described in Gurbel P A, et al., J Am Coll Cardiol. 1998; 31: 1466-1473. The data were collected in list mode files and then analyzed. P selectin was expressed as percent positive cells as described in Gurbel P A, et al, Am Heart J 2000; 139: 320-328. Other antigens were expressed as log mean fluorescence intensity.

[2] = tested on: Glycoprotein IIb/IIIa activity (fibrinogen binding, PAC-1); test: Whole blood flow cytometry, GP IIb/IIIa activity (PAC-1); details: for Glycoprotein IIb/IIIa activity (fibrinogen binding, PAC-1): baseline 10.3 ± 2.8
Method: as §1, §2

[3] = tested on: platelet/endothelial cell adhesion molecule-1 (PECAM-1, CD31); test: Whole blood flow cytometry, PECAM-1 expression; details: for Expression of platelet/endothelial cell adhesion molecule-1 (PECAM-1, CD31): baseline 69.2 ± 10.3
Method: as §1, §2

[4] = tested on: platelet/endothelial tetraspan antigen -3 (PETA-3, CD151); test: Whole blood flow cytometry, PETA-3 expression; details: for Expression of platelet/endothelial tetraspan antigen -3 (PETA-3, CD151): baseline 88.7 ± 24.2
Method: as §1, §2

[5] = tested on: platelet glycoprotein IIb/IIIa antigen (GPIIb, CD41); test: Whole blood flow cytometry, GP IIb/IIIa antigen expression; details: for Expression of platelet glycoprotein IIb/IIIa antigen (GPIIb, CD41): baseline 521.8 ± 98.2
Method: as §1, §2

[6] = tested on: lysosome associated membrane protein -1 (LAMP-1, CD107a); test: Whole blood flow cytometry, LAMP-1 expression; details: baseline 8.7 ± 3.2
Method: as §1, §2

[7] = tested on: shear-induced platelet aggregation; test: PFA-100 closure time, epinephrine/collagen cartridge; details: baseline 201 ± 22
Method: as §1
The platelet function analyzer (PFA-100′, Dade Behring, Deerfield, Ill.) is a device that simulates changes in primary hemostasis after injury to a small vessel under flow conditions. Kundu S K, et al., Semin Thromb Hemost 1995; 21(Suppl 2): 106-112. The time required to obtain occlusion of the aperture was digitally recorded as a measure of shear-induced platelet aggregation. Closure time determinations were performed in duplicate.

[8] = tested on: platelet vitronectin receptor (CD51/CD61); test: Whole blood flow cytometry, vitronectin receptor expression; details: whole blood flow cytometry
Method: as §1, §2

[9] = tested on: glycoprotein Ib (GPIb, CD42b); test: Whole blood flow cytometry, GP Ib expression; details: for Expression of glycoprotein Ib (GPIb, CD42b): baseline 246.4 ± 26.7
Method: as §1, §2

[10] = tested on: platelets (agglutination with fibrinogen-coated beads); test: Ultegra rapid platelet-function assay (RPFA-ASA); details: baseline 159 ± 27
Method: as §1
A rapid platelet-function assay cartridge test (RPFA-ASA, Ultegra® Accumetrics, Inc., San Diego, Calif., USA), using polystyrene beads coated cartridges with lyophilized human fibrinogen-coated microparticles, and propyl gallat served as an agonist. The whole blood citrate mixture was added to the cartridge, and agglutination between platelets and coated beads was recorded. The data mirrored turbidometric platelet aggregation and reflected the degree of platelet prostaglandin blockade. Smith J W, et al., Circulation 1999; 99: 620-625. Ultegra® assays were performed in duplicate. An electronic quality control test was performed on each instrument every day of use prior to performing any subject samples.

SMILES: CCCCC(=O)N(Cc1ccc(-c2ccccc2-c2nnn[nH]2)cc1)[C@H](C(=O)O)C(C)C [Valsartan, (S)-N-(1-carboxy-2-methyl-prop-1-yl)-N-pentanoyl-N-[2;(1H-tetrazol-5-yl)biphenyl-4-yl-methyl]amine, reference compound]
- Formation of platelet-leukocyte microparticles (CD151 + CD14) ([1]; drug 10 nM): 91.2 ± 20.5 log MFI
- Formation of platelet-leukocyte microparticles (CD151 + CD14) ([1]; drug 100 nM): 88.4 ± 21.9 log MFI
- Formation of platelet-leukocyte microparticles (CD151 + CD14) ([1]; drug 1 μM): 93.5 ± 23.8 log MFI
- Formation of platelet-leukocyte microparticles (CD151 + CD14) ([1]; drug 10 μM): 96.5 ± 18.7 log MFI
- Formation of platelet-leukocyte microparticles (CD151 + CD14) ([1]; drug 100 μM): 90.5 ± 19.2 log MFI
- Effect on platelet-leukocyte microparticles (CD151+14) (in words) ([1]; whole blood flow cytometry): not associated with any effect
- Glycoprotein IIb/IIIa activity (fibrinogen binding, PAC-1) ([2]; drug 10 nM): 9.3 ± 2.87 log MFI
- Glycoprotein IIb/IIIa activity (fibrinogen binding, PAC-1) ([2]; drug 100 nM): 11.2 ± 3.4 log MFI
- Glycoprotein IIb/IIIa activity (fibrinogen binding, PAC-1) ([2]; drug 1 μM): 7.0 ± 2.9 log MFI
- Glycoprotein IIb/IIIa activity (fibrinogen binding, PAC-1) ([2]; drug 10 μM): 6.9 ± 2.7 log MFI
- Glycoprotein IIb/IIIa activity (fibrinogen binding, PAC-1) ([2]; drug 100 μM): 9.9 ± 3.1 log MFI
- Effect on fibrinogen binding (PAC-1) (in words) ([2]; whole blood flow cytometry): slightly reduced
- Expression of platelet/endothelial cell adhesion molecule-1 (PECAM-1, CD31) ([3]; drug 10 nM): 71.8 ± 11.9 log MFI
- Expression of platelet/endothelial cell adhesion molecule-1 (PECAM-1, CD31) ([3]; drug 100 nM): 70.6 ± 12.6 log MFI
- Expression of platelet/endothelial cell adhesion molecule-1 (PECAM-1, CD31) ([3]; drug 1 μM): 74.5 ± 16.2 log MFI
- Expression of platelet/endothelial cell adhesion molecule-1 (PECAM-1, CD31) ([3]; drug 10 μM): 68.2 ± 16.2 log MFI
- Expression of platelet/endothelial cell adhesion molecule-1 (PECAM-1, CD31) ([3]; drug 100 μM): 70.6 ± 15.8 log MFI
- Effect on PECAM-1 (CD31) (in words) ([3]; whole blood flow cytometry): not associated with any effect
- Expression of platelet/endothelial tetraspan antigen -3 (PETA-3, CD151) ([4]; drug 10 nM): 84.1 ± 19.7 log MFI
- Expression of platelet/endothelial tetraspan antigen -3 (PETA-3, CD151) ([4]; drug 100 nM): 91.5 ± 23.4 log MFI
- Expression of platelet/endothelial tetraspan antigen -3 (PETA-3, CD151) ([4]; drug 1 μM): 81.6 ± 20.1 log MFI
- Expression of platelet/endothelial tetraspan antigen -3 (PETA-3, CD151) ([4]; drug 10 μM): 87.9 ± 18.3 log MFI
- Expression of platelet/endothelial tetraspan antigen -3 (PETA-3, CD151) ([4]; drug 100 μM): 91.7 ± 22.1 log MFI
- Effect on PETA-3 (CD151) (in words) ([4]; whole blood flow cytometry): not associated with any effect
- Expression of platelet glycoprotein IIb/IIIa antigen (GPIIb, CD41) ([5]; drug 10 nM): 531.2 ± 102.5 log MFI
- Expression of platelet glycoprotein IIb/IIIa antigen (GPIIb, CD41) ([5]; drug 100 nM): 502.9 ± 112.7 log MFI
- Expression of platelet glycoprotein IIb/IIIa antigen (GPIIb, CD41) ([5]; drug 1 μM): 498.2 ± 94.5 log MFI
- Expression of platelet glycoprotein IIb/IIIa antigen (GPIIb, CD41) ([5]; drug 10 μM): 506.7 ± 100.1 log MFI
- Expression of platelet glycoprotein IIb/IIIa antigen (GPIIb, CD41) ([5]; drug 100 μM): 455.2 ± 99.6 log MFI
- Effect on expression of GP IIb/IIIa (CD 41) (in words) ([5]; whole blood flow cytometry): decreased expression of CD41 only at a high dose
- Expression of lysosome associated membrane protein -1 (LAMP-1, CD107a) ([6]; drug 10 nM): 9.1 ± 3.8 log MFI
- Expression of lysosome associated membrane protein -1 (LAMP-1, CD107a) ([6]; drug 100 nM): 8.9 ± 2.7 log MFI
- Expression of lysosome associated membrane protein -1 (LAMP-1, CD107a) ([6]; drug 1 μM): 9.4 ± 3.9 log MFI
- Expression of lysosome associated membrane protein -1 (LAMP-1, CD107a) ([6]; drug 10 μM): 6.5 ± 3.2 log MFI
- Expression of lysosome associated membrane protein -1 (LAMP-1, CD107a) ([6]; drug 100 μM): 10.1 ± 4.5 log MFI
- PFA-100 closure time with the epinephrine/collagen cartridge ([7]; drug 10 nM): 187 ± 30 s
- PFA-100 closure time with the epinephrine/collagen cartridge ([7]; drug 100 nM): 209 ± 21 s
- PFA-100 closure time with the epinephrine/collagen cartridge ([7]; drug 1 μM): 268 ± 19 s
- PFA-100 closure time with the epinephrine/collagen cartridge ([7]; drug 10 μM): 278 ± 20 s
- PFA-100 closure time with the epinephrine/collagen cartridge ([7]; drug 100 μM): 200 ± 27 s
- Effect on expression of vitronectin receptors (in words) [8]: moderately reduced
- Expression of glycoprotein Ib (GPIb, CD42b) ([9]; drug 10 nM): 256.4 ± 31.4 log MFI
- Expression of glycoprotein Ib (GPIb, CD42b) ([9]; drug 100 nM): 248.7 ± 20.9 log MFI
- Expression of glycoprotein Ib (GPIb, CD42b) ([9]; drug 1 μM): 264.8 ± 18.2 log MFI
- Expression of glycoprotein Ib (GPIb, CD42b) ([9]; drug 10 μM): 244.3 ± 46.9 log MFI
- Expression of glycoprotein Ib (GPIb, CD42b) ([9]; drug 100 μM): 255.9 ± 19.7 log MFI
- Effect on GP Ib (CD42) (in words) ([9]; whole blood flow cytometry): not associated with any effect
- Ultegra Analyzer ([10]; drug 10 nM): 164 ± 16 platelet activation units
- Ultegra Analyzer ([10]; drug 100 nM): 160 ± 29 platelet activation units
- Ultegra Analyzer ([10]; drug 1 μM): 129 ± 26 platelet activation units
- Ultegra Analyzer ([10]; drug 10 μM): 130 ± 31 platelet activation units
- Ultegra Analyzer ([10]; drug 100 μM): 152 ± 19 platelet activation units
